Test results from patent publication US20100137239A1, “GEMCITABINE COMBINATION THERAPY” (GLOUCESTER PHARMACEUTICALS, priority 2006, published 2010).

Columns and labels:
[1] = test system: NIH-3T3 cells transformed by H, K, N-Ras and the rat Her-2/NeuT; test: 4-day proliferation assay, transformed NIH-3T3 cell lines; assay type: cell-based, mouse; details: 2 nM romidepsin
Procedure: (§1) A series of transformed NIH-3T3 cell likes were generated and a proliferation assay was performed in the presence of 2, 3, or 4 nM romidepsin. FIG. 23 illustrates the transformed morphology of the cells. FIG. 24 presents graphs of cell proliferation.

[2] = test system: B-Raf 600E cells; test: 4-day proliferation assay, B-Raf 600E NIH-3T3 cells; assay type: cell-based, mouse; details: 2, 3, or 4 nM romidepsin
Procedure: as §1

With `C/C=C1\NC(=O)[C@H]2CSSCC/C=C/[C@H](CC(=O)N[C@H](C(C)C)C(=O)N2)OC(=O)[C@H](C(C)C)NC1=O` [FK228, romidepsin] the “proliferation of transformed vs untransformed cells” value [1] was “selectively inhibited” and the “potency on B-Raf 600E cells” value [2] was “not potent”.
